Laboratory results reported in PubChem BioAssay AID330 (DTP/NCI, 2004).
“And” between values parts separate entries of the source, which are not always exact repeats. Equal entries are not always repeated. Toxic doses and inconclusive results are not listed. The calls were made as follows: active = survival T/C of 150% or more; inactive = T/C below 125% in these data.

System: P388 leukemia ip, CD2F1 mice, survival T/C
Assay: NCI In Vivo Anticancer Drug Screen. Data for tumor model P388 Leukemia (intraperitoneal) in CD2F1 (CDF1) mice
Conditions: endpoint: median survival time, higher = longer survival
In short: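 Mice carrying the transplanted tumor received test compound or vehicle. Survival was recorded in each group, and the value is the treated-group measurement divided by that of the vehicle-treated control group.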

[1] = dose: 100.0 mg/kg/injection, schedule: Q04DX002 (ip), vehicle: saline with Tween-80
[2] = dose: 200.0 mg/kg/injection, schedule: Q04DX002 (ip), vehicle: saline with Tween-80
[3] = dose: 400.0 mg/kg/injection, schedule: Q04DX002 (ip), vehicle: saline with Tween-80
[4] = dose: 50.0 mg/kg/injection, schedule: Q01DX009 (ip), vehicle: saline
[5] = dose: 50.0 mg/kg/injection, schedule: Q04DX003 (ip), vehicle: saline
[6] = dose: 100.0 mg/kg/injection, schedule: Q04DX003 (ip), vehicle: saline
[7] = dose: 200.0 mg/kg/injection, schedule: Q04DX003 (ip), vehicle: saline
[8] = dose: 50.0 mg/kg/injection, schedule: Q01DX009 (ip), vehicle: saline with Tween-80
[9] = dose: 100.0 mg/kg/injection, schedule: Q01DX009 (ip), vehicle: saline with Tween-80
[10] = dose: 200.0 mg/kg/injection, schedule: Q01DX009 (ip), vehicle: saline with Tween-80
[11] = dose: 50.0 mg/kg/injection, schedule: Q01DX009 (ip), vehicle: Klucel (hydroxypropylcellulose) (HPC)
[12] = dose: 100.0 mg/kg/injection, schedule: Q01DX009 (ip), vehicle: Klucel (hydroxypropylcellulose) (HPC)
[13] = dose: 200.0 mg/kg/injection, schedule: Q01DX009 (ip), vehicle: Klucel (hydroxypropylcellulose) (HPC)
[14] = dose: 50.0 mg/kg/injection, schedule: Q01DX005 (ip), vehicle: Klucel (hydroxypropylcellulose) (HPC)
[15] = dose: 100.0 mg/kg/injection, schedule: Q01DX005 (ip), vehicle: Klucel (hydroxypropylcellulose) (HPC)
[16] = dose: 60.0 mg/kg/injection, schedule: Q01DX005 (ip), vehicle: Klucel (hydroxypropylcellulose) (HPC)
[17] = dose: 120.0 mg/kg/injection, schedule: Q01DX005 (ip), vehicle: Klucel (hydroxypropylcellulose) (HPC)
[18] = dose: 240.0 mg/kg/injection, schedule: Q01DX005 (ip), vehicle: Klucel (hydroxypropylcellulose) (HPC)
[19] = dose: 200.0 mg/kg/injection, schedule: Q01DX005 (ip), vehicle: Klucel (hydroxypropylcellulose) (HPC)

Measured: T/C

N#Cc1ccc(NC(=O)Nc2nncs2)cc1
inactive: dose: 12.5 mg/kg/injection, schedule: Q01DX009 (ip), vehicle: distilled water + Tween-80 115 % of control and 116 % of control | dose: 25.0 mg/kg/injection, schedule: Q01DX009 (ip), vehicle: distilled water + Tween-80 122 % of control | dose: 200.0 mg/kg/injection, schedule: Q01DX009 (ip), vehicle: distilled water + Tween-80 104 % of control

CSc1c(C#N)c(N)nn1-c1ccccn1
inactive: [1] 100 % of control | [2] 98 % of control | [3] 99 % of control

N#CC(C#N)=NNc1c(Br)cc(Cl)cc1Br
inactive: dose: 1.56 mg/kg/injection, schedule: Q01DX009 (ip), vehicle: Klucel (hydroxypropylcellulose) (HPC) 104 % of control | dose: 3.12 mg/kg/injection, schedule: Q01DX009 (ip), vehicle: Klucel (hydroxypropylcellulose) (HPC) 105 % of control | dose: 6.25 mg/kg/injection, schedule: Q01DX009 (ip), vehicle: Klucel (hydroxypropylcellulose) (HPC) 116 % of control and 97 % of control

CCCCNC(=O)c1cc(NC(=O)c2ccc(C(=O)Nc3cc(C(=O)NCCCC)cc(C4N=CCN4)c3)cc2)cc(C2=NCCN2)c1 (centres undefined)
inactive: dose: 50.0 mg/kg/injection, schedule: Q01DX005 (ip), vehicle: saline with Tween-80 94 % of control | dose: 100.0 mg/kg/injection, schedule: Q01DX005 (ip), vehicle: saline with Tween-80 95 % of control

CC(=O)Nc1ccc(N=Nc2c(C)nn(C(=N)N)c2C)cc1
inactive: dose: 6.25 mg/kg/injection, schedule: Q01DX009 (ip), vehicle: saline 100 % of control and 103 % of control | dose: 12.5 mg/kg/injection, schedule: Q01DX009 (ip), vehicle: saline 108 % of control and 109 % of control and 93 % of control | dose: 25.0 mg/kg/injection, schedule: Q01DX009 (ip), vehicle: saline 114 % of control | [4] 123 % of control | [5] 98 % of control | [6] 110 % of control | [7] 122 % of control | dose: 300.0 mg/kg/injection, schedule: Q04DX003 (ip), vehicle: saline 121 % of control

Cc1ccc2oc3c(ccc(=O)n3C)c(=O)c2c1
inactive: [1] 101 % of control | [2] 100 % of control | [3] 98 % of control

C[CH](C)[Sn](=[O])[CH](C)C
inactive: dose: 0.78 mg/kg/injection, schedule: Q01DX009 (ip), vehicle: saline 113 % of control | dose: 1.56 mg/kg/injection, schedule: Q01DX009 (ip), vehicle: saline 106 % of control | dose: 3.12 mg/kg/injection, schedule: Q01DX009 (ip), vehicle: saline 107 % of control

CCCCCCCCCCCC(=O)N(CCOC(=O)c1ccco1)CCOC(=O)c1ccco1
inactive: [8] 108 % of control | [9] 91 % of control | [10] 87 % of control

Cc1cc(C)cc(N=Cc2ccc(C=Nc3cc(C)cc(C)c3)cc2)c1
inactive: [11] 92 % of control | [12] 95 % of control | [13] 100 % of control

CCOC(=O)C1(n2[nH]c(=O)n(-c3ccccc3)c2=O)CC(C)(C)OC1=O (centres undefined)
inactive: [11] 106 % of control | [12] 98 % of control | [13] 98 % of control

Cc1c(NC(=S)Nc2ccccc2C(F)(F)F)c(=O)n(-c2ccccc2)n1C
inactive: [11] 92 % of control | [12] 96 % of control | [13] 100 % of control

CC(C)(C)N1CCC1
inactive: [14] 100 % of control | [15] 99 % of control

C=Cc1ccccc1N/N=C(\Cl)C(=O)OCC
inactive: [1] 108 % of control | [2] 113 % of control

CN1CCC(OC(=O)c2ccco2)CC1
inactive: [5] 101 % of control | [6] 100 % of control | [7] 99 % of control

Oc1nc2nc[nH]n2c1N=Nc1ccccc1
inactive: [16] 115 % of control | [17] 98 % of control | [18] 92 % of control

CN(N=O)C(=O)NCC1OC(OC2(CO)OC(CNC(=O)N(C)N=O)C(O)C2O)C(O)C(O)C1O (centres undefined)
inactive: [4] 103 % of control and 109 % of control and 120 % of control | dose: 100.0 mg/kg/injection, schedule: Q01DX009 (ip), vehicle: saline 112 % of control and 120 % of control | dose: 200.0 mg/kg/injection, schedule: Q01DX009 (ip), vehicle: saline 104 % of control

COc1cccc(/C=N/N(C)c2c([N+](=O)[O-])cc(C(F)(F)F)cc2[N+](=O)[O-])c1O
inactive: [16] 93 % of control | [17] 92 % of control | [18] 87 % of control

Cc1ccc(NC(=O)NNC(=O)CSC2CCc3ccccc32)c(C)c1 (centres undefined)
inactive: [14] 92 % of control | [15] 92 % of control | [19] 90 % of control

CCOC(=O)C(=O)Nc1ccccc1
inactive: [9] 99 % of control | [10] 97 % of control | dose: 400.0 mg/kg/injection, schedule: Q01DX009 (ip), vehicle: saline with Tween-80 99 % of control

[Cl][Pd][Cl].[NH-]C1CCCC2CCC[N-]C12 (centres undefined)
inactive: dose: 12.5 mg/kg/injection, schedule: Q04DX002 (ip), vehicle: saline with Tween-80 104 % of control | dose: 25.0 mg/kg/injection, schedule: Q04DX002 (ip), vehicle: saline with Tween-80 110 % of control | dose: 50.0 mg/kg/injection, schedule: Q04DX002 (ip), vehicle: saline with Tween-80 104 % of control

CC(=O)OCC1(C)ON=C2CCCCC21 (centres undefined)
inactive: dose: 100.0 mg/kg/injection, schedule: Q01DX001 (ip), vehicle: saline with Tween-80 94 % of control | dose: 200.0 mg/kg/injection, schedule: Q01DX001 (ip), vehicle: saline with Tween-80 104 % of control | dose: 400.0 mg/kg/injection, schedule: Q01DX001 (ip), vehicle: saline with Tween-80 94 % of control

CC(=O)N1N=C(C)C2ON=C(c3ccc(Cl)cc3)P21 (centres undefined)
inactive: [14] 107 % of control | [15] 100 % of control | [19] 100 % of control

CC1=C/C(=N/N=c2\ccn(O)cc2C)C=CC1=N
inactive: dose: 3.13 mg/kg/injection, schedule: Q01DX009 (ip), vehicle: saline with Tween-80 100 % of control | dose: 6.25 mg/kg/injection, schedule: Q01DX009 (ip), vehicle: saline with Tween-80 95 % of control | dose: 12.5 mg/kg/injection, schedule: Q01DX009 (ip), vehicle: saline with Tween-80 104 % of control | dose: 25.0 mg/kg/injection, schedule: Q01DX009 (ip), vehicle: saline with Tween-80 98 % of control

O=C1C(N=Nc2ccc(S(=O)(=O)Nc3ccccn3)cc2)C(=O)N(c2ccccc2)C(=S)N1c1ccccc1
inactive: dose: 60.0 mg/kg/injection, schedule: Q01DX005 (ip), vehicle: saline 95 % of control | dose: 120.0 mg/kg/injection, schedule: Q01DX005 (ip), vehicle: saline 104 % of control | dose: 240.0 mg/kg/injection, schedule: Q01DX005 (ip), vehicle: saline 100 % of control

Clc1c2ccccc2c(Cl)c2ccccc12
inactive: [1] 97 % of control | [2] 103 % of control | [3] 96 % of control

CCCCCCC(O)CCC(O)CCCCCCCC(=O)O (centres undefined)
inactive: [8] 103 % of control | [9] 92 % of control | [10] 100 % of control

CC1=CC(S)NC(=S)N1 (centres undefined)
inactive: dose: 60.0 mg/kg/injection, schedule: Q01DX005 (ip), vehicle: saline with Tween-80 101 % of control | dose: 120.0 mg/kg/injection, schedule: Q01DX005 (ip), vehicle: saline with Tween-80 105 % of control | dose: 240.0 mg/kg/injection, schedule: Q01DX005 (ip), vehicle: saline with Tween-80 102 % of control
